Measurements as given in patent US10273243B2, “4-phenylpiperidines, their preparation and use” (The Trustees of Columbia University in the City of New York, priority 2013, dated 2019).
Structures can show the parent of a compound that is named as a salt.

Structure (SMILES)	melting point
O=C(c1n[nH]c2c1CCNC2)N1CCC(c2ccccc2C(F)(F)F)CC1 (as salt: hydrochloride) [Example 16, (4,5,6,7-Tetrahydro-1H-pyrazolo[3,4-c]pyridin-3-yl)(4-(2-(trifluoromethyl)phenyl)piperidin-1-yl)methanone Hydrochloride]	272 to 278 °C
Cn1nc(C(=O)N2CCC(c3ccccc3C(F)(F)F)CC2)c2c1CCOC2 [Example 1, (1-Methyl-1,4,6,7-tetrahydropyrano[4,3-c]pyrazol-3-yl)(4-(2-(trifluoromethyl)phenyl)piperidin-1-yl)methanone]	44 to 46 °C
Cn1nc(C(=O)N2CCC(c3ccccc3C(F)(F)F)CC2)c2c1CC(C)(C)OC2 [Example 2, (4-(2-(Trifluoromethyl)phenyl)piperidin-1-yl)(1,6,6-trimethyl-1,4,6,7-tetrahydropyrano[4,3-c]pyrazol-3-yl)methanone]	58 to 64 °C
Cn1nc(C(=O)N2CCC(c3ccccc3C(F)(F)F)CC2)c2c1CCS(=O)(=O)C2 [Example 3, (1-methyl-5,5-dioxido-1,4,6,7-tetrahydrothiopyrano[4,3-c]pyrazol-3-yl)(4-(2-(trifluoromethyl)phenyl)piperidin-1-yl)methanone]	232 to 234 °C
CC(=O)N1Cc2[nH]nc(C(=O)N3CCC(c4ccccc4C(F)(F)F)CC3)c2C1 [Example 7, 1-(3-(4-(2-(Trifluoromethyl)phenyl)piperidine-1-carbonyl)pyrrolo[3,4-c]pyrazol-5(1H,4H,6H)-yl)ethanone]	186 to 192 °C
CN1CCCc2[nH]nc(C(=O)N3CCC(c4ccccc4C(F)(F)F)CC3)c2C1 [Example 10, (5-Methyl-1,4,5,6,7,8-hexahydropyrazolo[4,3-c]azepin-3-yl)(4-(2-(trifluoromethyl)phenyl)piperidin-1-yl)methanone]	75 to 85 °C
CC(=O)N1CCc2c(C(=O)N3CCC(c4ccccc4C(F)(F)F)CC3)n[nH]c2C1 [Example 17, 1-(3-(4-(2-(Trifluoromethyl)phenyl)piperidine-1-carbonyl)-4,5-dihydro-1H-pyrazolo[3,4-c]pyridin-6(7H)-yl)ethanone]	202 to 209 °C
CS(=O)(=O)N1CCc2c(C(=O)N3CCC(c4ccccc4C(F)(F)F)CC3)n[nH]c2C1 [Example 18, (6-(Methylsulfonyl)-4,5,6,7-tetrahydro-1H-pyrazolo[3,4-c]pyridin-3-yl)(4-(2-(trifluoromethyl)phenyl)piperidin-1-yl)methanone]	242 to 245 °C
CN1CCc2c(C(=O)N3CCC(c4ccccc4C(F)(F)F)CC3)n[nH]c2C1 [Example 19, (6-Methyl-4,5,6,7-tetrahydro-1H-pyrazolo[3,4-c]pyridin-3-yl)(4-(2-(trifluoromethyl)phenyl)piperidin-1-yl)methanone]	115 to 120 °C
Cn1nc(C(=O)N2CCC(c3ccccc3C(F)(F)F)CC2)c2cc(F)ccc21 [Example 21, (5-Fluoro-1-methyl-1H-indazol-3-yl)(4-(2-(trifluoromethyl)phenyl)piperidin-1-yl)methanone]	161 to 163 °C
O=C(c1n[nH]c2c1CNCC2)N1CCC(c2ccccc2C(F)(F)F)CC1 [Example 26, (4,5,6,7-Tetrahydro-1H-pyrazolo[4,3-c]pyridin-3-yl)(4-(2-(trifluoromethyl)phenyl)piperidin-1-yl)methanone]	270 to 272 °C
CS(=O)(=O)N1CCc2[nH]nc(C(=O)N3CCC(c4ccccc4C(F)(F)F)CC3)c2C1 [Example 28, (5-(Methylsulfonyl)-4,5,6,7-tetrahydro-1H-pyrazolo[4,3-c]pyridin-3-yl)(4-(2-(trifluoromethyl)phenyl)piperidin-1-yl)methanone]	240 to 243 °C
O=C(c1n[nH]c2ncccc12)N1CCC(c2ccccc2C(F)(F)F)CC1 [Example 30, (1H-pyrazolo[3,4-b]pyridin-3-yl)(4-(2-(trifluoromethyl)phenyl)piperidin-1-yl)methanone]	202 to 205 °C
O=C(c1n[nH]c2cc(F)c(F)cc12)N1CCC(c2ccccc2C(F)(F)F)CC1 [Example 34, (5,6-Difluoro-1H-indazol-3-yl)(4-(2-(trifluoromethyl)phenyl)piperidin-1-yl)methanone]	233 to 235 °C
N#Cc1ccc2[nH]nc(C(=O)N3CCC(c4ccccc4C(F)(F)F)CC3)c2c1 [Example 36, 3-(4-(2-(Trifluoromethyl)phenyl)piperidine-1-carbonyl)-1H-indazole-5-carbonitrile]	249 to 252 °C
CCS(=O)(=O)N1CCc2[nH]nc(C(=O)N3CCC(c4ccccc4C(F)(F)F)CC3)c2C1 [Example 37, (5-(Ethylsulfonyl)-4,5,6,7-tetrahydro-1H-pyrazolo[4,3-c]pyridin-3-yl)(4-(2-(trifluoromethyl)phenyl)piperidin-1-yl)methanone]	187 to 189 °C
CC(C)S(=O)(=O)N1CCc2[nH]nc(C(=O)N3CCC(c4ccccc4C(F)(F)F)CC3)c2C1 [Example 39, (5-(Isopropylsulfonyl)-4,5,6,7-tetrahydro-1H-pyrazolo[4,3-c]pyridin-3-yl)(4-(2-(trifluoromethyl)phenyl)piperidin-1-yl)methanone]	199 to 201 °C
CCN1CCc2[nH]nc(C(=O)N3CCC(c4ccccc4C(F)(F)F)CC3)c2C1 [Example 43, (5-Ethyl-4,5,6,7-tetrahydro-1H-pyrazolo[4,3-c]pyridin-3-yl)(4-(2-(trifluoromethyl)phenyl)piperidin-1-yl)methanone]	159 to 162 °C
O=C(c1n[nH]c2c1CN(C1COC1)CC2)N1CCC(c2ccccc2C(F)(F)F)CC1 [Example 46, (5-(Oxetan-3-yl)-4,5,6,7-tetrahydro-1H-pyrazolo[4,3-c]pyridin-3-yl)(4-(2-(trifluoromethyl)phenyl)piperidin-1-yl)methanone]	107 to 110 °C
CC(C)S(=O)(=O)N1CCc2c(C(=O)N3CCC(c4ccccc4C(F)(F)F)CC3)n[nH]c2C1 [Example 51, (6-(Isopropylsulfonyl)-4,5,6,7-tetrahydro-1H-pyrazolo[3,4-c]pyridin-3-yl)(4-(2-(trifluoromethyl)phenyl)piperidin-1-yl)methanone]	220 to 222 °C

Second part, the compound after the results:

melting point	Structure (SMILES)
208 to 211 °C	CC(=O)N1CCc2[nH]nc(C(=O)N3CCC(c4ccccc4C(F)(F)F)CC3)c2C1 [Example 27, 1-(3-(4-(2-(Trifluoromethyl)phenyl)piperidine-1-carbonyl)-6,7-dihydro-1H-pyrazolo[4,3-c]pyridin-5(4H)-yl)ethanone]
178 to 180 °C	CC(C)CS(=O)(=O)N1CCc2[nH]nc(C(=O)N3CCC(c4ccccc4C(F)(F)F)CC3)c2C1 [Example 38, (5-(Isobutylsulfonyl)-4,5,6,7-tetrahydro-1H-pyrazolo[4,3-c]pyridin-3-yl)(4-(2-(trifluoromethyl)phenyl)piperidin-1-yl)methanone]
126 to 128 °C	CC(C)(C)C(=O)N1CCc2[nH]nc(C(=O)N3CCC(c4ccccc4C(F)(F)F)CC3)c2C1 [Example 40, 2,2-Dimethyl-1-(3-(4-(2-(trifluoromethyl)phenyl)piperidine-1-carbonyl)-6,7-dihydro-1H-pyrazolo[4,3-c]pyridin-5(4H)-yl)propan-1-one]
112 to 114 °C	CC(C)C(=O)N1CCc2[nH]nc(C(=O)N3CCC(c4ccccc4C(F)(F)F)CC3)c2C1 [Example 41, 2-Methyl-1-(3-(4-(2-(trifluoromethyl)phenyl)piperidine-1-carbonyl)-6,7-dihydro-1H-pyrazolo[4,3-c]pyridin-5(4H)-yl)propan-1-one]
107 to 109 °C	CC(C)CC(=O)N1CCc2[nH]nc(C(=O)N3CCC(c4ccccc4C(F)(F)F)CC3)c2C1 [Example 42, 3-Methyl-1-(3-(4-(2-(trifluoromethyl)phenyl)piperidine-1-carbonyl)-6,7-dihydro-1H-pyrazolo[4,3-c]pyridin-5(4H)-yl)butan-1-one]
153 to 155 °C	CCC(=O)N1CCc2[nH]nc(C(=O)N3CCC(c4ccccc4C(F)(F)F)CC3)c2C1 [Example 44, 1-(3-(4-(2-(Trifluoromethyl)phenyl)piperidine-1-carbonyl)-6,7-dihydro-1H-pyrazolo[4,3-c]pyridin-5(4H)-yl)propan-1-one]
105 to 107 °C	CC(C)CN1CCc2[nH]nc(C(=O)N3CCC(c4ccccc4C(F)(F)F)CC3)c2C1 [Example 45, (5-Isobutyl-4,5,6,7-tetrahydro-1H-pyrazolo[4,3-c]pyridin-3-yl)(4-(2-(trifluoromethyl)phenyl)piperidin-1-yl)methanone]
127 to 130 °C	O=C(CC(F)(F)F)N1CCc2[nH]nc(C(=O)N3CCC(c4ccccc4C(F)(F)F)CC3)c2C1 [Example 47, 3,3,3-Trifluoro-1-(3-(4-(2-(trifluoromethyl)phenyl)piperidine-1-carbonyl)-6,7-dihydro-1H-pyrazolo[4,3-c]pyridin-5(4H)-yl)propan-1-one]
192 to 194 °C	COCC(=O)N1CCc2[nH]nc(C(=O)N3CCC(c4ccccc4C(F)(F)F)CC3)c2C1 [Example 48, 2-Methoxy-1-(3-(4-(2-(trifluoromethyl)phenyl)piperidine-1-carbonyl)-6,7-dihydro-1H-pyrazolo[4,3-c]pyridin-5(4H)-yl)ethanone]
162 to 164 °C	CCC(=O)N1CCc2c(C(=O)N3CCC(c4ccccc4C(F)(F)F)CC3)n[nH]c2C1 [Example 49, 1-(3-(4-(2-(Trifluoromethyl)phenyl)piperidine-1-carbonyl)-4,5-dihydro-1H-pyrazolo[3,4-c]pyridin-6(7H)-yl)propan-1-one]
200 to 203 °C	CC(C)C(=O)N1CCc2c(C(=O)N3CCC(c4ccccc4C(F)(F)F)CC3)n[nH]c2C1 [Example 52, 2-Methyl-1-(3-(4-(2-(trifluoromethyl)phenyl)piperidine-1-carbonyl)-4,5-dihydro-1H-pyrazolo[3,4-c]pyridin-6(7H)-yl)propan-1-one]
216 to 219 °C	CCC(=O)N1Cc2[nH]nc(C(=O)N3CCC(c4ccccc4C(F)(F)F)CC3)c2C1 [Example 53, 1-(3-(4-(2-(Trifluoromethyl)phenyl)piperidine-1-carbonyl)pyrrolo[3,4-c]pyrazol-5(1H,4H,6H)-yl)propan-1-one]
192 to 195 °C	CC(C)C(=O)N1Cc2[nH]nc(C(=O)N3CCC(c4ccccc4C(F)(F)F)CC3)c2C1 [Example 54]
